Measured values published in patent US5698522A, “6-position modified decapeptide LHRH antagonists” (Abbott Laboratories, priority 1995, dated 1997).
*1 amine or outer side, *2 acyl side, *3 side chain or, on linkers, in order; H or OH if unused. Where a SMILES comes first, the peptide text is derived from it. Side-chain parts run from the residue outwards. [ ]: non-standard residue; d: D form. The star is where a group is joined. Shikimoyl = O=C(C1=C[C@@H](O)[C@@H](O)[C@H](O)C1)*; dPhe(4-Cl) = N[C@H](Cc1ccc(Cl)cc1)C(=O)O; d2Nal = N[C@H](Cc1ccc2ccccc2c1)C(=O)O; Lys(iPr) = CC(C)NCCCC[C@H](N)C(=O)O; NMeY = CN[C@@H](Cc1ccc(O)cc1)C(=O)O; Ethylenediamine = C(CN[*:2])N[*:1]; hArg = N=C(N)NCCCC[C@H](N)C(=O)O; d3Pal = N[C@H](Cc1cccnc1)C(=O)O; Nicotinoyl = O=C(c1cccnc1)*; 2Furoyl = O=C(c1ccco1)*; CO = O=C([*:1])[*:2]

target: T1, LHRH receptor (Rattus norvegicus, UniProt P30969); test: in vitro LHRH antagonist potency (pA2) against the agonist leuprolide; type: cell-based; conditions: negative logarithm of the antagonist concentration which shifts the response curve produced by the agonist leuprolide to two-fold higher concentration
T1 construct: endogenous in cells
T1 sequence (P30969 1-327): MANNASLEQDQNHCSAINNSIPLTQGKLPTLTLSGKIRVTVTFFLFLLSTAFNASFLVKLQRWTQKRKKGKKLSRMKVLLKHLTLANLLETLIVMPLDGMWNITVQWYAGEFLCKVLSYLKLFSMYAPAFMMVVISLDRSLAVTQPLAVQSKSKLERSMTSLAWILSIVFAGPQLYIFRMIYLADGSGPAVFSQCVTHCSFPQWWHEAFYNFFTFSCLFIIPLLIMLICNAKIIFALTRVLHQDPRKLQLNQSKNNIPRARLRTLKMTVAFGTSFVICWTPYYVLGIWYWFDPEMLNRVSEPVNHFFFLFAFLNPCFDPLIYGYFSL
Method: Representative compounds of the present invention were evaluated in in vitro tests for receptor binding (pKI) and for LHRH antagonist potency (pA2). The tests employed the methods detailed in F. Haviv, et al., J. Med. Chem., 32: 2340-2344 (1989). The receptor binding affinities (pKI) are the negative logarithms of the equilibtirum dissociation constants (pA2) are the negative logarithms of the concentration of antagonist which shift the response curve roduced by the agonist leuprolide to two-fold higher concentration. (Leuprolide is the LHRH agonist having the structure 5-oxo-Pro^1 -His^2 -Trp^3 -Ser^4 -Tyr^5 -D-Leu^6 -Leu^7 -Arg^8 -Pro^9 -NHEt and is disclosed and claimed in U.S. Pat. No. 4,005,063.) Typically pA2 values of 9.5 or greater are indicative of good LHRH antagonist potency.

Row | Compound | Kb
1 | CC(=O)N[C@H](Cc1ccc2ccccc2c1)C(=O)N[C@H](Cc1ccc(Cl)cc1)C(=O)N[C@H](Cc1cccnc1)C(=O)N[C@@H](CO)C(=O)N(C)[C@@H](Cc1ccc(O)cc1)C(=O)N[C@H](CCCCNC(=O)CNC(=O)c1ccco1)C(=O)N[C@@H](CC(C)C)C(=O)N[C@@H](CCCCNC(C)C)C(=O)N1CCC[C@H]1C(=O)N[C@H](C)C(N)=O [Example 6a, NAc-D2Nal^1 -D4ClPhe^2 -D3Pal^3 -Ser^4 -NMeTyr^5 -DLys(N-epsilon-Gly-2-Furoyl)^6 -Leu^7 -Lys(N-epsilon-Isopropyl)^8 -Pro^9 -DAla^10 NH2] (Ac-[d2Nal][dPhe(4-Cl)][d3Pal]S[NMeY][dK]([Gly-2Furoyl])L[Lys(iPr)]P[dA]-NH2) | 15.8 pM
2 | CC(=O)N[C@H](Cc1ccc2ccccc2c1)C(=O)N[C@H](Cc1ccc(Cl)cc1)C(=O)N[C@H](Cc1cccnc1)C(=O)N[C@@H](CO)C(=O)N(C)[C@@H](Cc1ccc(O)cc1)C(=O)N[C@H](CCCCNC(=O)CNC(=O)C1=C[C@@H](O)[C@@H](O)[C@H](O)C1)C(=O)N[C@@H](CC(C)C)C(=O)N[C@@H](CCCCNC(C)C)C(=O)N1CCC[C@H]1C(=O)N[C@H](C)C(N)=O [Example 6b, NAc-D2Nal^1 -D4ClPhe^2 -D3Pal^3 -Ser^4 -NMeTyr^5 -DLys(N-epsilon-Gly-Shikimyl)^6 -Leu^7 -Lys(N-epsilon-Isopropyl)^8 -Pro^9 -DAla^10 NH2] (Ac-[d2Nal][dPhe(4-Cl)][d3Pal]S[NMeY][dK]([Gly-Shikimoyl])L[Lys(iPr)]P[dA]-NH2) | 24 pM
3 | CC(=O)N[C@H](Cc1ccc2ccccc2c1)C(=O)N[C@H](Cc1ccc(Cl)cc1)C(=O)N[C@H](Cc1cccnc1)C(=O)N[C@@H](CO)C(=O)N(C)[C@@H](Cc1ccc(O)cc1)C(=O)N[C@H](CCCCNC(=O)[C@@H](CO)NC(=O)c1cccnc1)C(=O)N[C@@H](CC(C)C)C(=O)N[C@@H](CCCNC(=N)N)C(=O)N1CCC[C@H]1C(=O)N[C@H](C)C(N)=O [Example 7, NAc-D2Nal^1 -D4ClPhe^2 -D3Pal^3 -Ser^4 -NMeTyr^5 -DLys(N-epsilon-DSer-Nicotinyl)^6 -Leu^7 -Arg^8 -Pro^9 -DAla^10 NH2] (Ac-[d2Nal][dPhe(4-Cl)][d3Pal]S[NMeY][dK]([dS-Nicotinoyl])LRP[dA]-NH2) | 8.91 pM
4 | CC(=O)N[C@H](CO)C(=O)NCCCC[C@@H](NC(=O)[C@H](Cc1ccc(O)cc1)N(C)C(=O)[C@H](CO)NC(=O)[C@@H](Cc1cccnc1)NC(=O)[C@@H](Cc1ccc(Cl)cc1)NC(=O)[C@@H](Cc1ccc2ccccc2c1)NC(C)=O)C(=O)N[C@@H](CC(C)C)C(=O)N[C@@H](CCCNC(=N)N)C(=O)N1CCC[C@H]1C(=O)N[C@H](C)C(N)=O [Example 8, NAc-D2Nal^1 -D4ClPhe^2 -D3Pal^3 -Ser^4 -NMeTyr^5 -DLys(N-epsilon-DSer-Acetyl)^6 -Leu^7 -Arg^8 -Pro^9 -DAla^10 NH2] (Ac-[d2Nal][dPhe(4-Cl)][d3Pal]S[NMeY][dK]([dS-Ac])LRP[dA]-NH2) | 7.94 pM
5 | CC(=O)N[C@@H](CO)C(=O)NCCCC[C@@H](NC(=O)[C@H](Cc1ccc(O)cc1)N(C)C(=O)[C@H](CO)NC(=O)[C@@H](Cc1cccnc1)NC(=O)[C@@H](Cc1ccc(Cl)cc1)NC(=O)[C@@H](Cc1ccc2ccccc2c1)NC(C)=O)C(=O)N[C@@H](CC(C)C)C(=O)N[C@@H](CCCNC(=N)N)C(=O)N1CCC[C@H]1C(=O)N[C@H](C)C(N)=O [Example 9, NAc-D2Nal^1 -D4ClPhe^2 -D3Pal^3 -Ser^4 -NMeTyr^5 -DLys(N-epsilon-Ser-Acetyl)^6 -Leu^7 -Arg^8 -Pro^9 -DAla^10 NH2] (Ac-[d2Nal][dPhe(4-Cl)][d3Pal]S[NMeY][dK]([Ser-Ac])LRP[dA]-NH2) | 8.91 pM
6 | CC(=O)N[C@H](Cc1ccc2ccccc2c1)C(=O)N[C@H](Cc1ccc(Cl)cc1)C(=O)N[C@H](Cc1cccnc1)C(=O)N[C@@H](CO)C(=O)N(C)[C@@H](Cc1ccc(O)cc1)C(=O)N[C@H](CCCCNC(=O)CNC(=O)c1cccnc1)C(=O)N[C@@H](CC(C)C)C(=O)N[C@@H](CCCNC(=N)N)C(=O)N1CCC[C@H]1C(=O)N[C@H](C)C(N)=O [Example 10, NAc-D2Nal^1 -D4ClPhe^2 -D3Pal^3 -Ser^4 -NMeTyr^5 -DLys(N-epsilon-Gly-Nicotinyl)^6 -Leu^7 -Arg^8 -Pro^9 -DAla^10 NH2] (Ac-[d2Nal][dPhe(4-Cl)][d3Pal]S[NMeY][dK]([Gly-Nicotinoyl])LRP[dA]-NH2) | 5.01 pM
7 | CC(=O)N[C@H](Cc1ccc2ccccc2c1)C(=O)N[C@H](Cc1ccc(Cl)cc1)C(=O)N[C@H](Cc1cccnc1)C(=O)N[C@@H](CO)C(=O)N(C)[C@@H](Cc1ccc(O)cc1)C(=O)N[C@H](CCCCNC(=O)[C@@H](CO)NC(=O)C1=C[C@@H](O)[C@@H](O)[C@H](O)C1)C(=O)N[C@@H](CC(C)C)C(=O)N[C@@H](CCCNC(=N)N)C(=O)N1CCC[C@H]1C(=O)N[C@H](C)C(N)=O [Example 11, NAc-D2Nal^1 -D4ClPhe^2 -D3Pal^3 -Ser^4 -NMeTyr^5 -DLys(N-epsilon-DSer-Shikimyl)^6 -Leu^7 -Arg^8 -Pro^9 -DAla^10 NH2] (Ac-[d2Nal][dPhe(4-Cl)][d3Pal]S[NMeY][dK]([dS-Shikimoyl])LRP[dA]-NH2) | 17 pM
8 | CC(=O)N[C@H](CO)C(=O)NCCCC[C@@H](NC(=O)[C@H](Cc1ccc(O)cc1)N(C)C(=O)[C@H](CO)NC(=O)[C@@H](Cc1cccnc1)NC(=O)[C@@H](Cc1ccc(Cl)cc1)NC(=O)[C@@H](Cc1ccc2ccccc2c1)NC(C)=O)C(=O)N[C@@H](CC(C)C)C(=O)N[C@@H](CCCCNC(=N)N)C(=O)N1CCC[C@H]1C(=O)N[C@H](C)C(N)=O [Example 13, NAc-D2Nal^1 -D4ClPhe^2 -D3Pal^3 -Ser^4 -NMeTyr^5 -DLys(N-epsilon-DSer-Acetyl)^6 -Leu^7 -Harg^8 -Pro^9 -DAla^10 NH2] (Ac-[d2Nal][dPhe(4-Cl)][d3Pal]S[NMeY][dK]([dS-Ac])L[hArg]P[dA]-NH2) | 7.94 pM
9 | CC(=O)N[C@H](Cc1ccc2ccccc2c1)C(=O)N[C@H](Cc1ccc(Cl)cc1)C(=O)N[C@H](Cc1cccnc1)C(=O)N[C@@H](CO)C(=O)N(C)[C@@H](Cc1ccc(O)cc1)C(=O)N[C@H](CCCCNC(=O)NCCNC(=O)c1cccnc1)C(=O)N[C@@H](CC(C)C)C(=O)N[C@@H](CCCNC(=N)N)C(=O)N1CCC[C@H]1C(=O)N[C@H](C)C(N)=O [Example 14, NAc-D2Nal^1 -D4ClPhe^2 -D3Pal^3 -Ser^4 -NMeTyr^5 -DLys[N-epsilon-(N'-Carbonyl-Diaminoethane-N"-Nicotinyl)]^6 -Leu^7 -Arg^8 -Pro^9 -DAla^10 NH2] (Ac-[d2Nal][dPhe(4-Cl)][d3Pal]S[NMeY][dK]([CO-Ethylenediamine-Nicotinoyl])LRP[dA]-NH2) | 166 pM
10 | CC(=O)N[C@H](Cc1ccc2ccccc2c1)C(=O)N[C@H](Cc1ccc(Cl)cc1)C(=O)N[C@H](Cc1cccnc1)C(=O)N[C@@H](CO)C(=O)N(C)[C@@H](Cc1ccc(O)cc1)C(=O)N[C@H](CCCCNC(=O)NCCNC(=O)C1=C[C@@H](O)[C@@H](O)[C@H](O)C1)C(=O)N[C@@H](CC(C)C)C(=O)N[C@@H](CCCNC(=N)N)C(=O)N1CCC[C@H]1C(=O)N[C@H](C)C(N)=O [Example 15, NAc-D2Nal^1 -D4ClPhe^2 -D3Pal^3 -Ser^4 -NMeTyr^5 -DLys[N-epsilon-(N'-Carbonyl-Diaminoethane-N"-Shikimyl)]^6 -Leu^7 -Arg^8 -Pro^9 -DAla^10 NH2] (Ac-[d2Nal][dPhe(4-Cl)][d3Pal]S[NMeY][dK]([CO-Ethylenediamine-Shikimoyl])LRP[dA]-NH2) | 2.82 pM
